# Source: US20250368678A1, “19-NOR-C3,3-DISUBSTITUTED C21-AZACYCLO-S[…] AND METHOD FOR USING SAME” (SHANDONG LUYE PHARMACEUTICAL CO., LTD., priority 2022, published 2025)
# Assays:
# [1] = test system: SD rats; assay: Loss of righting reflex in SD rats, intragastric administration; format: in vivo; conditions: for rate of loss of righting reflex: within 4 h
# Excerpt: To determine the threshold for the loss of righting reflex in SD rats after intragastric administration of compound 41 in order to evaluate the sedative effect and therapeutic safety window of compound 41.
# Male SD rats weighing 180-200 g, as experimental animals, were acclimatized for 7 days after arriving at the animal facility and were randomly divided into groups based on weight one day before experimentation. The rats were fasted overnight before experimentation but had access to water. Doses of compound 41 were designed in a 0.8-fold gradient, and the doses were set at 39 mg/kg, 31.25 mg/kg, 25 mg/kg, 20 mg/kg, and 16 mg/kg, with 10 rats in each group. Observations were made on the loss of righting reflex within 4 h of intragastrically administering the compound to the rats.
# [2] = biological target: T1, α4β3δ GABA receptors (α4β3δ-HEK-FlpIn-TRex stable cell strain) (Homo sapiens, UniProt P28472+P48169); assay: Whole-cell patch clamp, extrasynaptic functional activity (positive allosteric regulation of GABA-induced current); format: cell-based; conditions: patch clamp -60 mV, GABA at EC10-20, α4β3δ-HEK-FlpIn-TRex cells
# T1 construct: expressed in transfected cells
# Method in brief: (§1)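 Tetracycline-induced stable lines were used: α4β3δ in HEK-FlpIn-TRex and α1β2γ2 in CHO-TRex. Whole-cell patch clamp was run at −60 mV with GABA at EC10-20 ([…]) and compound perfused for 30 s before GABA, with extracellular pH 7.4. Fold increase in GABA current over ≥5 concentrations on ≥3 cells gave EC50 and Emax by Hill fit.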
# [3] = Pharmacokinetic study in SD rats (plasma and brain); format: in vivo
# Procedure: Male SD rats weighing about 250 g were randomly divided into groups of 3.
# The intravenous dose was 6.1 mol/kg, and the intragastric dose was 24.4 μmol/kg. Animals were fasted for 12 h before administration, with free access to water, and were fed together 3 h post-administration. Blood samples of about 0.3 mL were collected at 5 min (intravenous), 15 min, 30 min, 1 h, 2 h, 3 h, 4 h, 6 h, 8 h, 12 h, and 24 h post-administration into heparinized EP tubes and centrifuged at 13,500 rpm for 10 min to separate the plasma. Rat brain tissue samples were collected after cardiac perfusion at 30 min, 2 h, and 6 h. After pretreatment, the samples were analyzed by LC-MS/MS to determine the concentration of the test compound in the plasma and brain, and pharmacokinetic parameters were calculated.
# [4] = biological target: T2, α1β2γ2 GABA receptors (α1β2γ2-CHO-TRex stable cell strain) (Homo sapiens, UniProt P14867+P47870); assay: Whole-cell patch clamp, intrasynaptic functional activity (positive allosteric regulation of GABA-induced current); format: cell-based; conditions: patch clamp -60 mV, GABA at EC10-20, α1β2γ2-CHO-TRex cells
# T2 construct: expressed in transfected cells
# Method in brief: as §1
# [5] = male, rat, 6.1 umol/kg, IV 6.1 μmol/kg, plasma
# [6] = male, rat, plasma, 6.1 umol/kg, IV 6.1 μmol/kg
# [7] = male, rat, plasma, po, 24.4 umol/kg, IG 24.4 μmol/kg
# [8] = male, rat, po, 24.4 umol/kg, IG 24.4 μmol/kg, plasma
# T1 sequence (P48169 36-554): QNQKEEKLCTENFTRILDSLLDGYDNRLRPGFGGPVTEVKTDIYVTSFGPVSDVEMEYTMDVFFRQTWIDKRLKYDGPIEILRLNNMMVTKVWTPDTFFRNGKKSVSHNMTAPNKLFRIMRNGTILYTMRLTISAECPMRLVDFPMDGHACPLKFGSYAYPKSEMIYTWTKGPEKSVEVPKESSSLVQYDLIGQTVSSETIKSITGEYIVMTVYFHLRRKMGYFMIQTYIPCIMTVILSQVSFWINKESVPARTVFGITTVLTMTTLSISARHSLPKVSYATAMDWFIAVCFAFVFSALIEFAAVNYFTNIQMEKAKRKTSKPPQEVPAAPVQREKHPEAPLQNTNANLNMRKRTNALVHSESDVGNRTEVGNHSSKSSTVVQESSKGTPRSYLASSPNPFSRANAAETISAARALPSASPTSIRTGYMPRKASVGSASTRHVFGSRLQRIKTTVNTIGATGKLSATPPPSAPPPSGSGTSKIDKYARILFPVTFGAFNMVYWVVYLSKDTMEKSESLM
# T1 sequence (P28472 26-473): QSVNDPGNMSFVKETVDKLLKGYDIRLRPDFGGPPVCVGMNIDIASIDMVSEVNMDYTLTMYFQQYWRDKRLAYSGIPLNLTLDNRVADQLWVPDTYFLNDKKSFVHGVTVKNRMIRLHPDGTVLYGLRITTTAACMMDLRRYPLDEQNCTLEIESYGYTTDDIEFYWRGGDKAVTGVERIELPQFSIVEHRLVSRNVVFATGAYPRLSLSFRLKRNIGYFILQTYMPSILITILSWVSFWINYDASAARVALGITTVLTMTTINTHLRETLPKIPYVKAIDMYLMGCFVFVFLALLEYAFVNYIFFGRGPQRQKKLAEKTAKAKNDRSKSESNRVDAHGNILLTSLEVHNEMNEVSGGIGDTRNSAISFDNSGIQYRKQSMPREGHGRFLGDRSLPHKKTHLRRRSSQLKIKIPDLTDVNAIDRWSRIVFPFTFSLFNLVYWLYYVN
# T1 sequence (O14764 25-452 partner): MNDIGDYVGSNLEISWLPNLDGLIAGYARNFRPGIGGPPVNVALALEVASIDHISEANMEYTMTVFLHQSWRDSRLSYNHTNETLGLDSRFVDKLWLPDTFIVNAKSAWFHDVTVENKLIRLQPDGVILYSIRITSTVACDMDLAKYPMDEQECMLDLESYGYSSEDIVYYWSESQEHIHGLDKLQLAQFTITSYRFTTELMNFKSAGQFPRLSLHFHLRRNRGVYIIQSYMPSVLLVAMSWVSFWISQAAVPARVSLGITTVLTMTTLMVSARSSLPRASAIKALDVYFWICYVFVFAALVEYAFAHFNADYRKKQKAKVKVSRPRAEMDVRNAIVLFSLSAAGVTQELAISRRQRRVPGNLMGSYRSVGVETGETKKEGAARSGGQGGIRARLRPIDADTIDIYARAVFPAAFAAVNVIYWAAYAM
# T2 sequence (P14867 28-456): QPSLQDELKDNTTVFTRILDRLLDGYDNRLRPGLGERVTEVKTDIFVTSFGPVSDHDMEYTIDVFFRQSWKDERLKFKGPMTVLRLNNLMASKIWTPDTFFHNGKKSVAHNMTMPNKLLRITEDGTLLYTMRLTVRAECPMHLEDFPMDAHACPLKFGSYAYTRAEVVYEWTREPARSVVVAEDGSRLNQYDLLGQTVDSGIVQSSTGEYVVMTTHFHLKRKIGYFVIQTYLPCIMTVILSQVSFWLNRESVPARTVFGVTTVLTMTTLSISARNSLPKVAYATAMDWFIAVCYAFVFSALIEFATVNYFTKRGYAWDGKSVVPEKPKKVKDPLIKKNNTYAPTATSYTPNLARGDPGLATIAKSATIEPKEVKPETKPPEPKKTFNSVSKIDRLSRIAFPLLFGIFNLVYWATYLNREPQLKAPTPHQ
# T2 sequence (P47870 25-512 limits assumed): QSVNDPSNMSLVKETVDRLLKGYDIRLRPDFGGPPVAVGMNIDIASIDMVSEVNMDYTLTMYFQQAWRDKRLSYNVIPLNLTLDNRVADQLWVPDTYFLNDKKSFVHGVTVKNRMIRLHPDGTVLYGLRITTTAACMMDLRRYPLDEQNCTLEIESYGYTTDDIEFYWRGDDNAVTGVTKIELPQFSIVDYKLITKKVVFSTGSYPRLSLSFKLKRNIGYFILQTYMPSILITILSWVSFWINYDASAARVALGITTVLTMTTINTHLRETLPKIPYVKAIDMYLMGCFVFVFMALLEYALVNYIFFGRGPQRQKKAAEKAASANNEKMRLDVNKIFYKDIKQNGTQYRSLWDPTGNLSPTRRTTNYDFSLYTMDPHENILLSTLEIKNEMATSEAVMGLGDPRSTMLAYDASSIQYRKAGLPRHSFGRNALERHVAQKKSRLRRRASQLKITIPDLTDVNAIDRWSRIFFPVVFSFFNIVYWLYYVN
# T2 sequence (P18507 40-475 partner): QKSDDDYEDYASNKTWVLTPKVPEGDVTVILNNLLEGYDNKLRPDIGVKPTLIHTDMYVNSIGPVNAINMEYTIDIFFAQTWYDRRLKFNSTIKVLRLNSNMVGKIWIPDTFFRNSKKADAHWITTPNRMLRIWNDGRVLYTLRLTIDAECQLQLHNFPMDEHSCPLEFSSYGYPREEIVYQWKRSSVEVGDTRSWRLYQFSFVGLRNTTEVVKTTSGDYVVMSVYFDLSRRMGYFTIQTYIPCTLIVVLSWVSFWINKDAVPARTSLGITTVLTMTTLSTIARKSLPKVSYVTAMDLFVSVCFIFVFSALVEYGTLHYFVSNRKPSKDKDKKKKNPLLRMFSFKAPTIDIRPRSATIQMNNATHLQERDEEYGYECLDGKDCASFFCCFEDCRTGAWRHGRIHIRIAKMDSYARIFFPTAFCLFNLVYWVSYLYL
structure (smiles),measurement,setting,value
C[C@@]1(O)CC[C@H]2[C@H](CC[C@@H]3[C@@H]2CC[C@]2(C)[C@@H](C(=O)Cn4cnn(-c5cc(F)nc(F)c5)c4=O)CC[C@@H]32)C1 [Compound 41],rate of loss of righting reflex,"[1]; 16 mg/kg intragastric, SD rats",0%
same,rate of loss of righting reflex,"[1]; 20 mg/kg intragastric, SD rats",0%
same,rate of loss of righting reflex,"[1]; 25 mg/kg intragastric, SD rats",50%
same,rate of loss of righting reflex,"[1]; 31.25 mg/kg intragastric, SD rats",90%
same,rate of loss of righting reflex,"[1]; 39 mg/kg intragastric, SD rats",100%
same,threshold for loss of righting reflex relative to effective dose for the antiepileptic convulsion effect,"[1]; intragastric, 20 mg/kg vs 3.5 mg/kg, rats",5.7 times
same,therapeutic safety window (in words),"[1]; intragastric, SD rats",relatively wide
same,threshold dose for the loss of righting reflex,"[1]; intragastrically administered, SD rats",20 mg/kg
same,EC50,[2],67 nM
same,Emax,[2],754%
same,brain penetration capability (in words),[3]; IG 24.4 μmol/kg,strong
same,Brain concentration,"[3]; IG 24.4 μmol/kg, 30 min",2565 ± 452 nmol/kg
same,Brain concentration,"[3]; IG 24.4 μmol/kg, 2 h",4533 ± 720 nmol/kg
same,Brain concentration,"[3]; IG 24.4 μmol/kg, 6 h",2692 ± 259 nmol/kg
same,AUC(0-inf),[3]; [5],10.1 ± 2.38 µM·h
same,AUC(0-t),[3]; [5],9.71 ± 2.26 µM·h
same,C0,[3]; [5],2.11 ± 0.537 µM
same,Kp at 30 min,"[3]; male, rat, brain/plasma, oral, IG 24.4 μmol/kg, 30 min, read-out: Brain-to-blood ratio",0.8
same,Kp at 2 h,"[3]; male, rat, brain/plasma, oral, IG 24.4 μmol/kg, 2 h, read-out: Brain-to-blood ratio",1.2
same,Kp at 6 h,"[3]; male, rat, brain/plasma, oral, IG 24.4 μmol/kg, 6 h, read-out: Brain-to-blood ratio",1.8
same,MRT last,[3]; [6],6.3 ± 0.83 h
same,half-life,[3]; [6],5.17 ± 0.55 h
same,bioavailability,"[3]; male, rat, plasma, oral, IG 24.4 μmol/kg vs IV 6.1 μmol/kg, read-out: F (absolute bioavailability)",84%
same,concentration at 30 min,"[3]; male, rat, plasma, oral, IG 24.4 μmol/kg, 30 min",3.2 ± 1.16 µM
same,concentration at 2 h,"[3]; male, rat, plasma, oral, IG 24.4 μmol/kg, 2 h",3.81 ± 0.67 µM
same,concentration at 6 h,"[3]; male, rat, plasma, oral, IG 24.4 μmol/kg, 6 h",1.48 ± 0.261 µM
same,MRT last,[3]; [7],7.61 ± 0.6 h
same,Tmax,[3]; [7],1.67 ± 0.58 h
same,half-life,[3]; [7],6.11 ± 1.44 h
same,AUC(0-inf),[3]; [8],35.1 ± 7.03 µM·h
same,AUC(0-t),[3]; [8],32.5 ± 5.2 µM·h
same,Cmax,[3]; [8],3.28 ± 0.324 µM
same,EC50,[4],145 nM
same,Emax,[4],762%
